What was measured:
T-47D = experiment: NCI60 five-dose screen; type: cell-based; conditions: Homo sapiens, T47D, breast cancer
RPMI-8226 = experiment: NCI60 five-dose screen; type: cell-based; conditions: Homo sapiens, RPMI-8226, leukemia
SN12C = experiment: NCI60 five-dose screen; type: cell-based; conditions: Homo sapiens, renal cancer
NCI-H522 = experiment: NCI60 five-dose screen; type: cell-based; conditions: Homo sapiens, NCI-H522, NSC lung cancer
SF-268 = experiment: NCI60 five-dose screen; type: cell-based; conditions: Homo sapiens, SF-268, CNS cancer
SNB-19 = experiment: NCI60 five-dose screen; type: cell-based; conditions: Homo sapiens, SNB-19, CNS cancer
HS 578T = experiment: NCI60 five-dose screen; type: cell-based; conditions: Homo sapiens, breast cancer
U251 = experiment: NCI60 five-dose screen; type: cell-based; conditions: Homo sapiens, U-251, U251, CNS cancer
OVCAR-8 = experiment: NCI60 five-dose screen; type: cell-based; conditions: Homo sapiens, OVCAR-8, ovarian cancer
MDA-MB-468 = experiment: NCI60 five-dose screen; type: cell-based; conditions: Homo sapiens, MDA-MB-468, breast cancer
UACC-257 = experiment: NCI60 five-dose screen; type: cell-based; conditions: Homo sapiens, UACC-257, melanoma
SF-295 = experiment: NCI60 five-dose screen; type: cell-based; conditions: Homo sapiens, SF-295, CNS cancer
TK-10 = experiment: NCI60 five-dose screen; type: cell-based; conditions: Homo sapiens, TK-10, renal cancer
MALME-3M = experiment: NCI60 five-dose screen; type: cell-based; conditions: Homo sapiens, melanoma
NCI/ADR-RES = experiment: NCI60 five-dose screen; type: cell-based, human; conditions: Homo sapiens, ovarian cancer
CCRF-CEM = experiment: NCI60 five-dose screen; type: cell-based; conditions: Homo sapiens, leukemia
SK-OV-3 = experiment: NCI60 five-dose screen; type: cell-based; conditions: Homo sapiens, SK-OV-3, ovarian cancer
MDA-MB-231/ATCC = experiment: NCI60 five-dose screen; type: cell-based; conditions: Homo sapiens, breast cancer
Human CYP19 (aromatase) = target: T1, Human CYP19 (aromatase) (Homo sapiens, UniProt P11511); experiment: Aromatase inhibition assay (DBF fluorometric substrate); type: biochemical; conditions: active defined as IC50 < 12.5 µM
T1 construct: purchased GENTEST, Woburn, MA 456260; host or cells: baculovirus/insect cells
T1 sequence (P11511 1-503): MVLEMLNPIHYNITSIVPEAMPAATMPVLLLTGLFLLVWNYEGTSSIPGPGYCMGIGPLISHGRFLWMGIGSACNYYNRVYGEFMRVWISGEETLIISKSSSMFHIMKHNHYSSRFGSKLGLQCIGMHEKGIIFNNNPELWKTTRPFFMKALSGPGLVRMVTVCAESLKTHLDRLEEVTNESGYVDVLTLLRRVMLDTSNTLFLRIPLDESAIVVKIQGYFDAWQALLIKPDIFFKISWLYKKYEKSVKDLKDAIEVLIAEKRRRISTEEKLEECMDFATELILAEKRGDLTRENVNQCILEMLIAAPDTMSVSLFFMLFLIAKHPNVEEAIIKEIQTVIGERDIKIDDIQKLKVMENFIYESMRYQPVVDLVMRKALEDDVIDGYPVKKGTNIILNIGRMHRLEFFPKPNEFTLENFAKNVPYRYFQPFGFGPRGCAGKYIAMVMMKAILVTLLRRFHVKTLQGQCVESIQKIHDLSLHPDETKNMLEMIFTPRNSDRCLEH
Outline: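 Insect-cell-expressed human CYP19 Supersomes with oxidoreductase turned over DBF for 30 min at 37 °C after a 10 min 37 °C pre-incubation with cofactor. NaOH quench; product measured by fluorescence, excitation 490 nm, emission 530 nm.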

MOLT-4 = experiment: NCI60 five-dose screen; type: cell-based; conditions: Homo sapiens, MOLT-4, leukemia
KM12 = experiment: NCI60 five-dose screen; type: cell-based; conditions: Homo sapiens, KM12, colon cancer
HL-60 (TB) = experiment: NCI60 five-dose screen; type: cell-based; conditions: Homo sapiens, leukemia
SK-MEL-28 = experiment: NCI60 five-dose screen; type: cell-based; conditions: Homo sapiens, SK-MEL-28, melanoma
SW-620 = experiment: NCI60 five-dose screen; type: cell-based; conditions: Homo sapiens, SW-620, colon cancer
HCC-2998 = experiment: NCI60 five-dose screen; type: cell-based; conditions: Homo sapiens, HCC-2998, colon cancer
OVCAR-5 = experiment: NCI60 five-dose screen; type: cell-based; conditions: Homo sapiens, OVCAR-5, ovarian cancer
UO-31 = experiment: NCI60 five-dose screen; type: cell-based; conditions: Homo sapiens, UO-31, renal cancer
NCI-H322M = experiment: NCI60 five-dose screen; type: cell-based; conditions: Homo sapiens, NSC lung cancer
[1] = read-out: LC50 (the source's name)

`CCc1ccc(/C=N/NC(=O)c2[nH]c3ccc(Br)cc3c2-c2ccccc2)[nH]1` [Derivative 3s, (E)-5-Bromo-N′-((5-ethyl-1H-pyrrol-2-yl)methylene)-3-phenyl-1H-indole-2-carbohydrazide] was tested, and the GI50 (T-47D) was 681 nM, the CC50 (T-47D; [1]) was 52700 nM and the GI50 (RPMI-8226) was 375 nM. The CC50 (RPMI-8226; [1]) was greater than 100000 nM, the GI50 (SN12C) was 392 nM and the CC50 (SN12C; [1]) was 30300 nM. It also gave a GI50 (NCI-H522) of 183 nM, a CC50 (NCI-H522; [1]) of 28000 nM and a GI50 (SF-268) of 1470 nM. It also gave a CC50 (SF-268; [1]) of 83000 nM, a GI50 (SNB-19) of 1820 nM and a CC50 (SNB-19; [1]) of 51800 nM. For the same molecule, the GI50 (HS 578T) was 294 nM, the CC50 (HS 578T; [1]) was greater than 100000 nM and the GI50 (U251) was 329 nM. It also gave a CC50 (U251; [1]) of 36700 nM, a GI50 (OVCAR-8) of 337 nM and a CC50 (OVCAR-8; [1]) of 25200 nM. It also gave a GI50 (MDA-MB-468) of 248 nM, a CC50 (MDA-MB-468; [1]) of 25900 nM and a GI50 (UACC-257) of 1320 nM. It also gave a CC50 (UACC-257; [1]) of 64700 nM, a GI50 (SF-295) of 246 nM and a CC50 (SF-295; [1]) of 31900 nM. It also gave a GI50 (TK-10) of 2910 nM, a CC50 (TK-10; [1]) of 46300 nM and a GI50 (MALME-3M) of 880 nM. The CC50 (MALME-3M; [1]) was 46500 nM, the GI50 (NCI/ADR-RES) was 253 nM and the CC50 (NCI/ADR-RES; [1]) was 30200 nM. It also gave a GI50 (CCRF-CEM) of 375 nM, a CC50 (CCRF-CEM; [1]) greater than 100000 nM and a GI50 (SK-OV-3) of 514 nM. It also gave a CC50 (SK-OV-3; [1]) of 50100 nM, a GI50 (MDA-MB-231/ATCC) of 630 nM and a CC50 (MDA-MB-231/ATCC; [1]) of 48400 nM. For the same molecule, the IC50 (Human CYP19 (aromatase)) was 4600 ± 500 nM, the GI50 (MOLT-4) was 464 nM and the CC50 (MOLT-4; [1]) was greater than 100000 nM. It also gave a GI50 (KM12) of 289 nM, a CC50 (KM12; [1]) of 37500 nM and a GI50 (HL-60 (TB)) of 235 nM. It also gave a CC50 (HL-60 (TB); [1]) greater than 100000 nM, a GI50 (SK-MEL-28) of 979 nM and a CC50 (SK-MEL-28; [1]) of 49800 nM. The GI50 (SW-620) was 558 nM, the CC50 (SW-620; [1]) was 43200 nM and the GI50 (HCC-2998) was 1450 nM. The CC50 (HCC-2998; [1]) was 35100 nM, the GI50 (OVCAR-5) was 573 nM and the CC50 (OVCAR-5; [1]) was 38700 nM. For the same molecule, the GI50 (UO-31) was 644 nM, the CC50 (UO-31; [1]) was 59900 nM and the GI50 (NCI-H322M) was 1730 nM. The CC50 (NCI-H322M; [1]) was 64600 nM.

Source: article PMC12203311, “Design, synthesis, in silico and in vitro evaluation of pyrrole–indole hybrids as dual tubulin and aromatase inhibitors with potent anticancer activities” (RSC Advances, 2025)
